According to PubChem BioAssay AID248 (DTP/NCI, 2004):
“And” between values parts separate entries of the source, which are not always exact repeats. Equal values may be shown once. Toxic doses and inconclusive results are not listed. Cut-off read from the data, not from the text of the source: active = T/C of 150% or more; inactive = T/C below 125%.

System: L1210 leukemia ip in BDF1 mice, survival T/C
Experiment: NCI In Vivo Anticancer Drug Screen. Data for tumor model L1210 Leukemia (intraperitoneal) in B6D2F1 (BDF1) mice
Conditions: endpoint: mean survival time, higher = longer survival
Procedure, shortened: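 Each compound was tested against a transplantable tumor grown in mice. The endpoint was survival, with treated animals benchmarked against vehicle controls as a simple ratio.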

[1] = dose: 100.0 mg/kg/injection, schedule: Q04DX003 (ip), vehicle: Klucel (hydroxypropylcellulose) (HPC)
[2] = dose: 200.0 mg/kg/injection, schedule: Q04DX003 (ip), vehicle: Klucel (hydroxypropylcellulose) (HPC)
[3] = dose: 400.0 mg/kg/injection, schedule: Q04DX003 (ip), vehicle: Klucel (hydroxypropylcellulose) (HPC)
[4] = dose: 100.0 mg/kg/injection, schedule: Q04DX003 (ip), vehicle: saline
[5] = dose: 200.0 mg/kg/injection, schedule: Q04DX003 (ip), vehicle: saline
[6] = dose: 400.0 mg/kg/injection, schedule: Q04DX003 (ip), vehicle: saline
[7] = dose: 100.0 mg/kg/injection, schedule: Q01DX009 (ip), vehicle: saline
[8] = dose: 200.0 mg/kg/injection, schedule: Q01DX009 (ip), vehicle: saline
[9] = dose: 400.0 mg/kg/injection, schedule: Q01DX009 (ip), vehicle: saline
[10] = dose: 100.0 mg/kg/injection, schedule: Q01DX001 (ip), vehicle: saline
[11] = dose: 200.0 mg/kg/injection, schedule: Q01DX001 (ip), vehicle: saline
[12] = dose: 400.0 mg/kg/injection, schedule: Q01DX001 (ip), vehicle: saline
[13] = dose: 100.0 mg/kg/injection, schedule: Q04DX003 (ip), vehicle: saline with Tween-80
[14] = dose: 200.0 mg/kg/injection, schedule: Q04DX003 (ip), vehicle: saline with Tween-80
[15] = dose: 100.0 mg/kg/injection, schedule: Q01DX009 (ip), vehicle: Klucel (hydroxypropylcellulose) (HPC)
[16] = dose: 200.0 mg/kg/injection, schedule: Q01DX009 (ip), vehicle: Klucel (hydroxypropylcellulose) (HPC)
[17] = dose: 400.0 mg/kg/injection, schedule: Q01DX009 (ip), vehicle: Klucel (hydroxypropylcellulose) (HPC)

Measured: T/C

CCC(CCC(C)C1CCC2C3CC=C4CC(OC5OC(CO)C(O)C(O)C5O)CCC4(C)C3CCC12C)C(C)C (stereo unspecified)
inactive: dose: 100.0 mg/kg/injection, schedule: Q01DX Z (ip), vehicle: Klucel (hydroxypropylcellulose) (HPC) 92 % of control | [1] 106 % of control | dose: 200.0 mg/kg/injection, schedule: Q01DX Z (ip), vehicle: Klucel (hydroxypropylcellulose) (HPC) 91 % of control | [2] 104 % of control | dose: 400.0 mg/kg/injection, schedule: Q01DX Z (ip), vehicle: Klucel (hydroxypropylcellulose) (HPC) 91 % of control | [3] 90 % of control

Nc1nc(N)c(N)c(SCC(=O)C(=O)O)n1
inactive: dose: 25.0 mg/kg/injection, schedule: Q01DX001 (ip), vehicle: saline with Tween-80 108 % of control | dose: 50.0 mg/kg/injection, schedule: Q01DX001 (ip), vehicle: saline with Tween-80 111 % of control | dose: 100.0 mg/kg/injection, schedule: Q01DX001 (ip), vehicle: saline with Tween-80 106 % of control and 108 % of control | dose: 200.0 mg/kg/injection, schedule: Q01DX001 (ip), vehicle: saline with Tween-80 115 % of control

OCCCCCCCCCCC[n+]1ccccc1Cc1ccccc1
inactive: dose: 75.0 mg/kg/injection, schedule: Q01DX001 (ip), vehicle: Klucel (hydroxypropylcellulose) (HPC) 92 % of control

Nc1nnnc2c1cnn2C1OC(CO)C(O)C1O (stereo unspecified)
inactive: dose: 100.0 mg/kg/injection, schedule: Q01DX001 (ip), vehicle: other 97 % of control | dose: 200.0 mg/kg/injection, schedule: Q01DX001 (ip), vehicle: other 101 % of control | dose: 400.0 mg/kg/injection, schedule: Q01DX001 (ip), vehicle: other 101 % of control

CC(=O)NN(CCN(NC(C)=O)C(C)=O)C(C)=O
inactive: [4] 104 % of control | [5] 95 % of control | [6] 101 % of control

COC1OC2COC(c3ccccc3)OC2C(OC)C1OC(=O)c1ccccc1 (stereo unspecified)
inactive: [4] 93 % of control | [5] 91 % of control | [6] 98 % of control

CCOC(=O)/C=C(/OC(=O)c1ccccc1)c1ccccc1
inactive: dose: 100.0 mg/kg/injection, schedule: Q01DX001 (ip), vehicle: acetone 95 % of control | [7] 107 % of control | dose: 200.0 mg/kg/injection, schedule: Q01DX001 (ip), vehicle: acetone 97 % of control | [8] 107 % of control | dose: 400.0 mg/kg/injection, schedule: Q01DX001 (ip), vehicle: acetone 103 % of control | [9] 94 % of control

CN1CCN(C)P1(=O)N1CCCC1
inactive: [10] 107 % of control | [11] 94 % of control | [12] 94 % of control

COc1c2ccccc2nc2ccccc12
inactive: [13] 93 % of control | [14] 91 % of control | dose: 400.0 mg/kg/injection, schedule: Q04DX003 (ip), vehicle: saline with Tween-80 95 % of control

OC1CCSc2ccc3ccccc3c21 (stereo unspecified)
inactive: [7] 114 % of control | [8] 104 % of control | [9] 104 % of control

O=C(c1ccccc1)c1c2ccccc2c(-c2ccccc2)c2ccccc12
inactive: [15] 101 % of control | [1] 92 % of control | [16] 103 % of control | [2] 89 % of control | [17] 92 % of control | [3] 90 % of control

CCSC(=S)SCC(=O)O
inactive: [13] 107 % of control | [14] 92 % of control

O=[N+]([O-])c1ccc(C2OC(c3ccncc3)=NC2CO)cc1 (stereo unspecified)
inactive: dose: 12.5 mg/kg/injection, schedule: Q04DX002 (ip), vehicle: saline 90 % of control | dose: 25.0 mg/kg/injection, schedule: Q04DX002 (ip), vehicle: saline 97 % of control | dose: 50.0 mg/kg/injection, schedule: Q01DX009 (ip), vehicle: saline 96 % of control | dose: 50.0 mg/kg/injection, schedule: Q04DX002 (ip), vehicle: saline 90 % of control | dose: 75.0 mg/kg/injection, schedule: Q01DX009 (ip), vehicle: saline 102 % of control | dose: 115.0 mg/kg/injection, schedule: Q01DX009 (ip), vehicle: saline 101 % of control

CN1C(=O)C(C)(C)C(=O)c2ccccc21
inactive: dose: 100.0 mg/kg/injection, schedule: Q04DX002 (ip), vehicle: other 90 % of control | dose: 200.0 mg/kg/injection, schedule: Q04DX002 (ip), vehicle: other 100 % of control | dose: 400.0 mg/kg/injection, schedule: Q04DX002 (ip), vehicle: other 97 % of control

Nc1nc(N)c2cc(N3CCCC3c3ccc(Cl)cc3)ccc2n1 (stereo unspecified)
inactive: dose: 25.0 mg/kg/injection, schedule: Q01DX009 (ip), vehicle: water 87 % of control

COC1=C(C)CCC1=O
inactive: dose: 37.5 mg/kg/injection, schedule: Q04DX002 (ip), vehicle: saline 106 % of control | dose: 75.0 mg/kg/injection, schedule: Q04DX002 (ip), vehicle: saline 95 % of control | dose: 150.0 mg/kg/injection, schedule: Q04DX002 (ip), vehicle: saline 98 % of control | dose: 300.0 mg/kg/injection, schedule: Q04DX002 (ip), vehicle: saline 88 % of control

CCCC[CH2][Sn](=[O])[CH2]CCCC
inactive: dose: 12.5 mg/kg/injection, schedule: Q04DX003 (ip), vehicle: saline 101 % of control | dose: 25.0 mg/kg/injection, schedule: Q04DX003 (ip), vehicle: saline 101 % of control | dose: 50.0 mg/kg/injection, schedule: Q04DX003 (ip), vehicle: saline 108 % of control | [10] 109 % of control | [11] 104 % of control | [12] 98 % of control

COC(=O)C1OC1c1ccc2ccccc2c1 (stereo unspecified)
inactive: [15] 93 % of control | [16] 95 % of control | [17] 97 % of control

[NH-]CC([NH-])=O.[NH-]CC([NH-])=O.[Ni]
inactive: dose: 3.12 mg/kg/injection, schedule: Q01DX009 (ip), vehicle: water 96 % of control | dose: 6.25 mg/kg/injection, schedule: Q01DX009 (ip), vehicle: water 100 % of control | dose: 12.5 mg/kg/injection, schedule: Q01DX009 (ip), vehicle: water 103 % of control

CC1=C(CO)C(=O)O[C@@H]([C@@H](C)[C@H]2CC[C@H]3[C@@H]4C[C@H]5O[C@]56[C@@H](O)C=CC(=O)[C@]6(C)[C@H]4CC[C@]23C)C1
inactive: dose: 10.0 mg/kg/injection, schedule: Q01DX Z (ip), vehicle: carboxymethylcellulose (CMC) 98 % of control | dose: 20.0 mg/kg/injection, schedule: Q01DX Z (ip), vehicle: carboxymethylcellulose (CMC) 101 % of control | dose: 50.0 mg/kg/injection, schedule: Q01DX001 (sc), vehicle: steriod suspending solution 103 % of control | dose: 100.0 mg/kg/injection, schedule: Q01DX001 (sc), vehicle: steriod suspending solution 100 % of control | dose: 200.0 mg/kg/injection, schedule: Q01DX001 (sc), vehicle: steriod suspending solution 103 % of control

O=C(Nc1ccc(Br)cc1)c1cc(Br)ccc1O
inactive: dose: 50.0 mg/kg/injection, schedule: Q01DX001 (ip), vehicle: carboxymethylcellulose (CMC) 98 % of control | dose: 100.0 mg/kg/injection, schedule: Q01DX001 (ip), vehicle: carboxymethylcellulose (CMC) 102 % of control | dose: 100.0 mg/kg/injection, schedule: Q04DX002 (ip), vehicle: Klucel (hydroxypropylcellulose) (HPC) 103 % of control | dose: 200.0 mg/kg/injection, schedule: Q01DX001 (ip), vehicle: carboxymethylcellulose (CMC) 89 % of control | dose: 200.0 mg/kg/injection, schedule: Q04DX002 (ip), vehicle: Klucel (hydroxypropylcellulose) (HPC) 92 % of control | dose: 400.0 mg/kg/injection, schedule: Q01DX001 (ip), vehicle: carboxymethylcellulose (CMC) 94 % of control | dose: 400.0 mg/kg/injection, schedule: Q04DX002 (ip), vehicle: Klucel (hydroxypropylcellulose) (HPC) 95 % of control

COC1OC(CO)C(O)C1n1cnc2c(SC)ncnc21 (stereo unspecified)
inactive: dose: 100.0 mg/kg/injection, schedule: Q04DX002 (ip), vehicle: saline 107 % of control | dose: 200.0 mg/kg/injection, schedule: Q04DX002 (ip), vehicle: saline 104 % of control

Cc1ccc(CNC(=S)NC2CCCCC2)cc1C
inactive: dose: 25.0 mg/kg/injection, schedule: Q01DX009 (ip), vehicle: Klucel (hydroxypropylcellulose) (HPC) 97 % of control | dose: 50.0 mg/kg/injection, schedule: Q01DX009 (ip), vehicle: Klucel (hydroxypropylcellulose) (HPC) 93 % of control | [15] 93 % of control
